# Data reported in patent publication US8148097B2, “Screening method for identification of compounds with calcium-independent phospholipase A2β (iPLA2β) modulating activity” (Washington University, priority 2005, dated 2012).
# Experiments:
# iPLA2β [1] = biological target: T1, iPLA2β (Cricetulus griseus, UniProt A0A3L7I2I8); test: ESI-MS analysis of iPLA2β reaction products from POPC/BODIPY-PC vesicles; assay type: biochemical; details: 5 mol % oleoyl-CoA, FIG. 11H
# T1 construct: (His)6; made in house; host or cells: Sf9 insect cells (baculovirus)
# T1 sequence (A0A3L7I2I8 1-752 isoform A0A3L7I2I8-2): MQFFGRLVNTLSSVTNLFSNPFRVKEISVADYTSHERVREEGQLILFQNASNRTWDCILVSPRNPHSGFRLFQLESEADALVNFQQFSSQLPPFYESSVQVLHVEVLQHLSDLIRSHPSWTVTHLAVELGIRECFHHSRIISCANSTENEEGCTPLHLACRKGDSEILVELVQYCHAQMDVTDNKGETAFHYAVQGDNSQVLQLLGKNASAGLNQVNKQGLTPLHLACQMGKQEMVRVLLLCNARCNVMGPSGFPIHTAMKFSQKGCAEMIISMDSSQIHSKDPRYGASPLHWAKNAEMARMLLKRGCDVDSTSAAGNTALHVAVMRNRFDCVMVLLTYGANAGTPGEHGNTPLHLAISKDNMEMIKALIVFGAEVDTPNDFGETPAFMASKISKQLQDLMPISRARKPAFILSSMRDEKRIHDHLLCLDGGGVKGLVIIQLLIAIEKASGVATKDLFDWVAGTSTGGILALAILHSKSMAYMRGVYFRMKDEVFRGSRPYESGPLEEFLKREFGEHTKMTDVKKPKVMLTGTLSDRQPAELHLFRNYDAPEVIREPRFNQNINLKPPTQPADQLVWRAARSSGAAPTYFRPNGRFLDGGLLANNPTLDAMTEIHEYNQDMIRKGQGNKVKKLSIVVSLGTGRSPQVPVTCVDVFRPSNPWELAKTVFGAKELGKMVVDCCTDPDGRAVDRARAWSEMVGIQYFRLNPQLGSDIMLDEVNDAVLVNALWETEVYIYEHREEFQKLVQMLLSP
# Experimental: (§1) FIGS. 11A-11D—Purified iPLA2β+/−Ca^2+/CaM was incubated with POPC/BODIPY-PC (95:5 mol %) host vesicles for 2 min at 37° C. with the indicated concentrations of guest oleoyl-CoA. Relative fluorescence was recorded utilizing 495 nm excitation and 515 nm emission wavelengths as described in Experimental Procedures. FIGS. 11E-11H—ESI-MS analysis of phosphatidylcholine molecular species from the reactions described in panels A and D. Spectra were acquired in the positive ion mode with the indicated internal standards as described in Experimental Procedures. FIG. 11I—Purified iPLA2β in the presence or absence of Ca^2+/CaM was incubated with 1-palmitoyl-2-[1-^14C]-oleoyl-sn-glycero-3-phosphocholine (100 μM) host vesicles with or without guest oleoyl-CoA (10 μM) for 3 min at 37° C. Radiolabeled fatty acid was extracted into butanol, resolved by TLC, and quantified by scintillation spectrometry as described in Experimental Procedures.
# To confirm that iPLA2β was in fact hydrolyzing BODIPY-PC and that the increase in fluorescence observed was not due to either protein-fluorophore or acylCoA-fluorophore interactions, the reaction substrates and products were extracted into chloroform/methanol in the presence of internal standards and subsequently quantified and analyzed by ESI-MS (83). […]
# iPLA2β [2] = biological target: T1, iPLA2β; test: Real-time fluorescence BODIPY-PC assay of iPLA2β phospholipase A2 activity; assay type: biochemical
# Experimental: as §1
# Phospholipase A2 and Acyl-CoA Hydrolase Enzymatic Assays—Purified recombinant iPLA2β(His)6 (peptide disclosed as SEQ ID NO: 4) (0.1-1 μg) was incubated with radiolabeled phospholipid or acyl-CoA in 25 mM Tris-HCl, pH 7.2 containing 1 mM EGTA (200 μl final volume) for 1-2 mm at 37° C. […] Incorporation of acyl-CoA into the POPC/DOPS vesicles employed was determined as described previously (64). Reactions were terminated by extraction of the released radiolabeled fatty acids into 100 μl butanol, separation of fatty acids from unreacted substrate by thin layer chromatography, and quantitation by scintillation spectroscopy as previous described (65). For tests examining the effects of acyl-CoAs on calmodulin-mediated inhibition of iPLA2β, phospholipase A2 activity was continuously measured utilizing a SPECTRAmax GEMINI XS Dual-Scanning Microplate Spectrofluorometer (Molecular Devices). […] Fluorescence readings were acquired at 20 sec intervals for 5 mm at 37° C. utilizing excitation/emission wavelengths of 495/515 nm, respectively. […]
smiles,measurement,setting,value
CCCCCCCC/C=C\CCCCCCCC(=O)SCCNC(=O)CCNC(=O)[C@H](O)C(C)(C)COP(=O)(O)OP(=O)(O)OC[C@H]1O[C@@H](n2cnc3c(N)ncnc32)[C@H](O)[C@@H]1OP(=O)(O)O [oleoyl-CoA],effect on inhibition of iPLA2β by Ca2+/CaM,iPLA2β [1],completely reversed the inhibition
same,reversal of calmodulin-mediated inhibition of iPLA2β phospholipase A2 activity,iPLA2β [2]; 5 μM oleoyl-CoA,significant reversal
same,"activity of CaM-inhibited iPLA2β, % of initial activity","iPLA2β [2]; 1 mol % oleoyl-CoA, FIG. 11B",≈ 40%
same,effect on CaM mediated inhibition of iPLA2β,"iPLA2β [2]; 2.5-5 mol % oleoyl-CoA, FIG. 11C-D",completely eliminated CaM mediated inhibition
